Source: patent publication US9732091B2, “Tryptophanol-derived oxazoloisoindolinones: small-molecule P53 activators” (UNIVERSIDADE DO PORTO, priority 2013, dated 2017)

Experiments:
[1] = tested on: HCT116 p53^−/−; test: SRB growth inhibition assay in HCT116 p53^−/− colon carcinoma cells; assay type: cell-based, human; details: Homo sapiens, HCT-116, 48 hours incubation, mean±S.E.M.
Experimental: Tumor cells were plated at 5.0×10^3 cells/well in 96-well plates and incubated for 24 hours. Cells were then exposed to serial dilutions of SLMP53-1, CP-31398 or PRIMA-1 (from 1.85 to 150 μM). The effect of the compounds was analyzed following 48 hours incubation, using the sulforhodamine B (SRB) assay. The solvent DMSO corresponding to the maximum concentration used in these assays (0.025%) was included as control. The GI50 value, the concentration of compound that causes 50% growth inhibition, was calculated for the tested compounds. Results are the mean±S.E.M. of three independent experiments.

[2] = tested on: HCT116 p53^+/+; test: Western blot of p53 and p53-target proteins, PARP cleavage, HCT116 p53^+/+; assay type: cell-based, human
Experimental: FIG. 2 illustrates that SLMP53-1 increases the levels of proteins encoded by p53 target genes (MDM2, p21, PUMA and BAX), and leads to PARP cleavage in colon carcinoma cells with wt p53 (HCT116 p53^+/+), but not in colon carcinoma cells without wt p53 (HCT116 p53^−/−). Western blot analysis was performed for human colon carcinoma cells after 16 (B, D, E) and 24 (A, C, F) hours treatment with 15.5 μM of SLMP53-1, 135 nM doxorubicin (DOXO; positive control) or DMSO only. The protein expression levels were evaluated by quantification of Western Blot band intensity (with Bio-Profile Bio-1D++ software) using GAPDH as loading control.

[3] = tested on: HCT116 p53^+/+ cells; test: cell cycle analysis by flow cytometry (propidium iodide), HCT116 p53^+/+; assay type: cell-based, human; details: double GI50, 24 hours
Experimental: FIG. 3 illustrates the effect of SLMP53-1 on cell cycle progression of HCT116 p53^+/+ cells. Cell cycle phases were analyzed by flow cytometry using propidium iodide and quantified using ModFit LT software (Verity Software House Inc., Topsham, USA). Effect of compounds (double GI50) was analyzed after 24 hours treatment. Histograms represent one of two independent experiments; quantification of cell cycle phases represents the mean±S.E.M. of two independent experiments.

[4] = tested on: HCT116 p53^+/+ cells; test: sensitization to etoposide and doxorubicin, SRB assay, HCT116 p53^+/+; assay type: cell-based, human
Experimental: FIG. 5 illustrates that SLMP53-1 sensitizes colon carcinoma tumor cells with wt p53 (HCT116 p53^+/+) to the effects of etoposide and doxorubicin. HCT116 p53^+/+ cells were treated for 48 hours with increasing concentrations of etoposide (0.38 to 3.00 μM) or doxorubicin (9.38 to 75.0 nM) in the presence of a very low concentration (between GI5 to GI10; 4 μM) of SLMP53-1 or DMSO only. The effect of the compounds on cell growth was analyzed following 48 hours incubation, using the sulforhodamine B (SRB) assay. Results are mean±SEM of three to four independent experiments.
It was also investigated if SLMP53-1 increased the sensitivity of HCT116 p53^+/+ cells to the effects of various concentrations of the conventional chemotherapeutic drugs, etoposide (0.38 to 3.00 μM) and doxorubicin (9.38 to 75 nM). For that, a low concentration of SLMP53-1 (approximately the GI5 to GI10 concentration; 4 μM; without significant anti-proliferative effect on tumor cells) was used.

[5] = target: T1, mutant p53 R273H (Homo sapiens, UniProt P04637, R273H); test: reactivation of mutant p53 in yeast (growth, CFU), R273H; assay type: cell-based; details: 10 μM; yeast expressing R273H; 44 hours
T1 construct: expressed in transfected cells
Experimental: FIG. 6 illustrates that SLMP53-1 reactivates mutant p53s R273H, R175H and R280K in yeast. Yeast cells expressing R273H, R280K, Y220C or R175H were incubated in selective medium with 10 μM of SLMP53-1, 10 μM of CP-31398 (for R273H), 10 μM of PRIMA-1 (for R175H and R280K), 50 μM of PhiKan 083 (for Y220C) or DMSO only, for 44 hours. CP-31398, PRIMA-1 and PhiKan 083 were used as positive controls. Results are plotted setting as 100% growth the number of CFU obtained in the presence of DMSO only.
It is also shown that SLMP53-1 can reactivate some mutant p53 forms, particularly R273H, R280K and R175H (FIG. 6).

[6] = tested on: MDA-MB-231 cells (mutant p53 R280K); test: sensitization to etoposide and doxorubicin, SRB assay, MDA-MB-231; assay type: cell-based, human
Experimental: FIG. 9 illustrates that SLMP53-1 sensitizes breast cancer MDA-MB-231 cells to the effects of etoposide and doxorubicin. The MDA-MB-231 tumor cells (with the mutant p53 R280K) were treated for 48 hours with increasing concentrations of etoposide ([…] to 6.00 μM) or doxorubicin (187.5 to 750.0 nM) in the presence of a very low concentration (between GI5 to GI10; 4 μM) of SLMP53-1 or with DMSO only. Effect of compounds on cell growth was analyzed following 48 hours incubation, using the sulforhodamine B (SRB) assay. Results are mean±SEM of three to four independent experiments.
It was also investigated if SLMP53-1 increased the sensitivity of MDA-MB-231 cells to the effects of various concentrations of etoposide (0.38 to 6.00 μM) and doxorubicin (187.5 to 750.0 nM). For that, a low concentration of SLMP53-1 (approximately the GI5 to GI10 concentration; 4 μM; without significant anti-proliferative effects on tumor cell lines) was used. […] Particularly, for 0.38 μM etoposide (for which an anti-proliferative effect is not observed), a 25% decrease of tumor cell growth was obtained in the presence of 4 μM of SLMP53-1.

## C[C@]12OC[C@H](Cc3c[nH]c4ccccc34)N1C(=O)c1ccccc12 [SLMP53-1]
[1]
  GI50: 34 ± 3.5 µM
[2]; 15.5 μM (GI50), 16 and 24 hours
  protein levels of p53 and of MDM2, p21, PUMA and BAX: increased
[2]; 24 hours
  PARP cleavage: led to PARP cleavage
[3]
  cell cycle progression: G0/G1-phase cell arrest
[4]; 9.38 nM doxorubicin in the presence of 4 μM of SLMP53-1, HCT116 p53^+/+
  decrease of tumor cell growth: 15%
[4]; 4 μM SLMP53-1, etoposide 0.75 and 3.00 μM, doxorubicin 9.38, 37.5 and 75 nM, 48 hours
  etoposide/doxorubicin-induced growth inhibition: increased
[5]
  yeast growth inhibition: significant growth inhibition
[6]; 0.38 μM etoposide in the presence of 4 μM of SLMP53-1
  decrease of tumor cell growth: 25%
[6]; 4 μM SLMP53-1, three concentrations tested, 48 hours
  etoposide/doxorubicin-induced growth inhibition: increased
